# Patent publication US5360803A, “Composition and method for treating cancer” (Dan Farber Cancer Institute, priority 1992, dated 1994)
# Like-named read-outs stand apart in the source and are kept apart here.
# Columns and labels:
# Format in all cases: cell-based
# [1] = test system: CV-1 cells; experiment: selective killing assay, colony number reduced to 50% of control, normal monkey kidney epithelial cell line CV-1; conditions: 24 hours treatment; for IC50: Primates; for CV-1 (IC50): Table III
# Excerpt: The control received culture media only.
# [2] = test system: CX-1 cells; experiment: selective killing assay, colony number reduced to 50% of control, human colon carcinoma cell line CX-1; conditions: for IC50 / CX-1 (IC50): human colon carcinoma, 24 hours treatment, colony count after 7 to 10 days;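 as to all read-outs here: colonies stained with crystal violet and counted, control cells given medium alone, exposure at 37 °C, normal monkey kidney epithelial CV-1 cells as the non-cancer comparator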
# [3] = test system: EJ cells; experiment: colony assay of Example 1 with human bladder carcinoma EJ cell line; conditions: for Selectivity: CV-1/EJ; for IC50: Homo sapiens, EJ, 24 h, Table IV, human bladder carcinoma, 24 hours treatment;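 as to all read-outs here: colony formation assay with 24 h compound exposure at 37 °C, then 7–10 days drug-free regrowth, colonies stained with crystal violet, controls given medium alone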
# Experimental: (§1) Human colon carcinoma cell line CX-1 or normal monkey kidney epithelial cell line CV-1 was chosen as representatives of cancer cells and normal cells, respectively. […] CX-1 cells (2,000 cells/well) and CV-1 cells (1,000 cells/well) were plated in 24-well plastic culture plates. […] The control received culture media only. Cells were treated with compounds of General Formulas (I) to (V) at 37° C. for 24 hours. After rinsing with fresh culture medium three times, the cells were further incubated at 37° C. for 7 to 10 days. Cell colonies were fixed and stained with 2% crystal violet in 70% ethanol for 10 minutes and rinsed in water. […] The selectivity is defined as the ratio of IC50 for CV-1 and IC50 for CX-1.
# [4] = test system: CRL 1420 cells; experiment: colony assay of Example 1 with human pancreatic carcinoma CRL 1420 cell line; conditions: for Selectivity: CV-1/CRL-1420; for IC50: Homo sapiens, 24 h, Table VII, human pancreatic carcinoma, 24 hours treatment;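 as to all read-outs here: colony formation assay, cells exposed for 24 h then regrown 7 to 10 days without compound, colonies stained with crystal violet, control given medium alone, normal reference CV-1 monkey kidney epithelial cells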
# Experimental: as §1
# [5] = CV-1, Table III, normal monkey kidney epithelial cells, colony count after 7 to 10 days
# [6] = normal monkey kidney epithelial cells, colony count after 7 to 10 days
SMILES,"IC50 [1, 5] [µg/mL]",Selectivity (ratio of IC50 for CV-1 and IC50 for CX-1) ([2]; CV-1/CX-1),"IC50 ([2]; Homo sapiens, CX-1, Table III) [µg/mL]",other results
CCn1c(=Cc2oc3ccc(OC)cc3[n+]2CC)sc(=C2Sc3ccccc3N2C)c1=O [Compound 35],6,150,0.04,–
CCn1c(=Cc2oc3ccccc3[n+]2CC)sc(=C2Sc3ccccc3N2C)c1=O [Compound 38],–,333,–,"CV-1 (IC50) [1, 6]: 10 µg/mL; CX-1 (IC50) ([2]; Table III): 0.03 µg/mL"
CCn1c(=CC2=[N+](C)c3ccccc3C2(C)C)sc(=C2Sc3ccccc3N2C)c1=O [Compound 17],10,167,0.06,–
CCn1c(=Cc2sc3ccccc3[n+]2CC)sc(=C2Sc3ccc(OC)cc3N2C)c1=O [Compound 47],6,150,0.04,–
CCn1c(=Cc2cccc[n+]2CC)sc(=C2Sc3ccccc3N2C)c1=O [Compound 18],20,4000,0.005,–
CCn1c(=Cc2[se]c3ccccc3[n+]2CC)sc(=C2Sc3ccc(Cl)cc3N2C)c1=O [Compound 63],20,100,–,"IC50 ([2]; CX-1, Table III): 0.2 µg/mL"
CCn1c(=Cc2sc3c4ccccc4ccc3[n+]2CC)sc(=C2Sc3ccc(Cl)cc3N2C)c1=O [Compound 54],20,400,0.05,–
CCn1c(=Cc2sc3ccc4ccccc4c3[n+]2CC)sc(=C2Sc3ccc(C(F)(F)F)cc3N2C)c1=O [Compound 307],6,120,0.05,–
CCn1c(=Cc2sc3ccc4ccccc4c3[n+]2CC)sc(=C2Sc3c(ccc4ccccc34)N2C)c1=O [Compound 255],5,100,0.05,–
CCn1c(=Cc2ccc3ccccc3[n+]2CC)sc(=C2Sc3ccccc3N2C)c1=O [Compound 20],2,–,0.02,Selectivity (ratio of IC50 for CV-1 and IC50 for CX-1) [2]: 100
CCn1c(=Cc2sc3c4ccccc4ccc3[n+]2CC)sc(=C2Oc3ccc4ccccc4c3N2C)c1=O [Compound 115],6,120,0.05,–
CCn1c(=Cc2sc3c4ccccc4ccc3[n+]2CC)sc(=C2SC=C(C)N2C)c1=O [Compound 131],6,120,0.05,–
CCn1c(=Cc2sc3ccccc3[n+]2CC)sc(=C2Sc3c(ccc4ccccc34)N2C)c1=O [Compound 98],8,160,0.05,–
CCn1c(=Cc2sc3ccc(Cl)cc3[n+]2CC)sc(=C2Sc3ccccc3N2C)c1=O [Compound 40],6,200,0.03,–
CCn1c(=Cc2cc[n+](CC)c3ccccc23)sc(=C2Sc3ccccc3N2C)c1=O [Compound 24],1.5,150,0.01,–
CCn1c(=Cc2oc3ccccc3[n+]2CC)sc(=C2Sc3ccccc3N2C)c1=O [Compound 34],–,267,–,"CV-1 (IC50) [1, 6]: 8 µg/mL; CX-1 (IC50) ([2]; Table III): 0.03 µg/mL"
C=CCn1c(=Cc2oc3ccc4ccccc4c3[n+]2C)sc(=C2Oc3c(ccc4ccccc34)N2C)c1=O [Compound 319],–,–,–,"IC50 ([1]; CV-1, 24 h, Table IV): 6 µg/mL; Selectivity [3]: 300; IC50 [3]: 0.02 µg/mL"
CCn1c(=Cc2oc3cc4ccccc4cc3[n+]2CC)sc(=C2Sc3c(ccc4ccccc34)N2C)c1=O [Compound 237],–,–,–,"Selectivity [4]: 267; IC50 [4]: 0.03 µg/mL; IC50 ([1]; CV-1, 24 h, Table VII): 8 µg/mL"
CCn1c(=Cc2scc[n+]2CC)sc(=C2Oc3ccc(-c4ccccc4)cc3N2C)c1=O [Compound 210],10,100,0.1,"Selectivity [4]: 111; IC50 [4]: 0.09 µg/mL; IC50 ([1]; CV-1, 24 h, Table IV): 10 µg/mL; IC50 ([1]; CV-1, 24 h, Table VII): 10 µg/mL; Selectivity [3]: 100; IC50 [3]: 0.1 µg/mL"
CCn1c(=Cc2sc3c4ccccc4ccc3[n+]2CC)sc(=C2SCCN2C)c1=O [Compound 121],20,200,0.1,–
CCn1c(=Cc2oc3cc4ccccc4cc3[n+]2CC)sc(=C2Sc3ccc4ccccc4c3N2C)c1=O [Compound 96],20,333,0.06,–
